Results from PubChem BioAssay (NCI).
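Dose response: 5 concentrations. Exposure: 48 h. Format: 96-well plates. Endpoint: linear interpolation; highest concentration if not reached. GI50 is the concentration that inhibits growth by half. The concentration for full growth arrest is given as TGI.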

Tests used:
Test in all cases: NCI-60 cell line screen, 48 h
SK-MEL-28 melanoma = system: SK-MEL-28 melanoma
SN12C renal = system: SN12C renal
MALME-3M melanoma = system: MALME-3M melanoma
HL-60(TB) leukemia = system: HL-60(TB) leukemia
NCI-H522 lung = system: NCI-H522 lung
K-562 leukemia = system: K-562 leukemia
CCRF-CEM leukemia = system: CCRF-CEM leukemia
HOP-92 NSCLC = system: HOP-92 NSCLC
PC-3 prostate = system: PC-3 prostate
BT-549 breast = system: BT-549 breast

With `Nc1ccccc1C(=O)/C=C/c1c(O)ccc2ccccc12` the TGI (SK-MEL-28 melanoma) was > 100 µM, the TGI (SN12C renal) was > 100 µM and the TGI (MALME-3M melanoma) was > 100 µM. The TGI (HL-60(TB) leukemia) was > 100 µM, the TGI (NCI-H522 lung) was > 100 µM and the TGI (K-562 leukemia) was > 100 µM. For the same compound, the TGI (CCRF-CEM leukemia) was > 100 µM and the TGI (HOP-92 NSCLC) was > 100 µM.
In the case of `O=[N+]([O-])c1cccc(C2=NOC(C3CCCCC3)C2)c1` (configuration not stated), the TGI (SK-MEL-28 melanoma) is reported as > 100 µM, the TGI (SN12C renal) is reported as > 100 µM and the TGI (MALME-3M melanoma) is reported as > 100 µM. For the same compound, the TGI (HL-60(TB) leukemia) was > 100 µM, the TGI (NCI-H522 lung) was > 100 µM and the TGI (K-562 leukemia) was > 100 µM. For the same compound, the TGI (CCRF-CEM leukemia) was > 100 µM and the TGI (HOP-92 NSCLC) was > 100 µM.
For `O=C(CC(=O)C1CCOC1=O)C(=O)Nc1cccc(Cl)c1` (configuration not stated), the TGI (SK-MEL-28 melanoma) was > 100 µM, the TGI (SN12C renal) was > 100 µM and the TGI (MALME-3M melanoma) was > 100 µM. For the same compound, the TGI (HL-60(TB) leukemia) was > 100 µM, the TGI (NCI-H522 lung) was > 100 µM and the TGI (K-562 leukemia) was > 100 µM. For the same compound, the TGI (HOP-92 NSCLC) was > 100 µM.
With `COc1ccc(CC2c3c(cc(OC)c(OC)c3OC)CCN2C)cc1OC` (configuration not stated) the TGI (SK-MEL-28 melanoma) was > 100 µM, the TGI (SN12C renal) was > 100 µM and the TGI (MALME-3M melanoma) was > 100 µM. For the same compound, the TGI (NCI-H522 lung) was > 100 µM, the TGI (K-562 leukemia) was > 100 µM and the TGI (CCRF-CEM leukemia) was > 100 µM.
With `CN(C)CCNCCN` the TGI (SK-MEL-28 melanoma) was > 100 µM, the TGI (SN12C renal) was > 100 µM and the TGI (MALME-3M melanoma) was > 100 µM. For the same compound, the TGI (PC-3 prostate) was > 100 µM, the TGI (HL-60(TB) leukemia) was > 100 µM and the TGI (NCI-H522 lung) was > 100 µM. For the same compound, the TGI (K-562 leukemia) was > 100 µM, the TGI (HOP-92 NSCLC) was > 100 µM and the TGI (BT-549 breast) was > 100 µM.
With `CC1CC(O)C(=O)C(O[C@@H]2C[C@@H]3CC[C@@H]4[C@H](CC[C@]5(C)C(C6=CC(=O)OC6)CC[C@]45O)[C@@]3(C=O)C[C@H]2O)O1` (some centres not stated) the TGI (SK-MEL-28 melanoma) was 0.329 µM, the TGI (MALME-3M melanoma) was 0.0708 µM and the TGI (PC-3 prostate) was < 0.0424 µM. For the same compound, the TGI (HL-60(TB) leukemia) was 0.155 µM, the TGI (NCI-H522 lung) was < 0.0274 µM and the TGI (BT-549 breast) was 0.126 µM.
`CC(C)CCC[C@@H](C)C1CCC2[C@@H]3CC=C4C[C@@H](C(=O)NCCN(C)C)CC[C@]4(C)C3CC[C@@]21C` (some centres not stated) was tested, and the TGI (SK-MEL-28 melanoma) was > 100 µM, the TGI (SN12C renal) was 46.7 µM and the TGI (MALME-3M melanoma) was > 100 µM. For the same compound, the TGI (HL-60(TB) leukemia) was > 100 µM, the TGI (NCI-H522 lung) was > 100 µM and the TGI (K-562 leukemia) was > 100 µM. For the same compound, the TGI (CCRF-CEM leukemia) was 73.1 µM and the TGI (HOP-92 NSCLC) was 61.4 µM.
With `CC(C(=O)c1ccc(Cl)cc1)/C(=N/NC(=O)NN)C(=O)Nc1cccc(C(F)(F)F)c1` (configuration not stated) the TGI (SK-MEL-28 melanoma) was > 100 µM, the TGI (SN12C renal) was > 100 µM and the TGI (MALME-3M melanoma) was > 100 µM. The TGI (HL-60(TB) leukemia) was > 100 µM, the TGI (K-562 leukemia) was > 100 µM and the TGI (CCRF-CEM leukemia) was > 100 µM.
With `COc1cccc(/C=N/[N-]C(=O)c2ccncc2)c1[O-].COc1cccc(/C=N/[N-]C(=O)c2ccncc2)c1[O-].[O]=[U](=[O])([OH2+])[OH2+]` the GI50 (SK-MEL-28 melanoma) was 10 µM, the TGI (SK-MEL-28 melanoma) was > 56.7 µM and the GI50 (SN12C renal) was 7.15 µM. The TGI (SN12C renal) was 32.5 µM, the GI50 (MALME-3M melanoma) was 12.8 µM and the TGI (MALME-3M melanoma) was > 66.3 µM. For the same compound, the GI50 (HL-60(TB) leukemia) was 2.43 µM, the TGI (HL-60(TB) leukemia) was > 100 µM and the GI50 (NCI-H522 lung) was 2.05 µM. The TGI (NCI-H522 lung) was 11 µM, the GI50 (K-562 leukemia) was 5.29 µM and the TGI (K-562 leukemia) was > 100 µM. For the same compound, the GI50 (CCRF-CEM leukemia) was 2.06 µM, the TGI (CCRF-CEM leukemia) was > 30.7 µM and the GI50 (HOP-92 NSCLC) was 14.3 µM. It also gave a TGI (HOP-92 NSCLC) of 54.5 µM.
`CC(C)(C)c1ccc2c(c1)S(=O)(=O)Nc1ccc(Cl)cc1NS(=O)(=O)c1cc(C(C)(C)C)ccc1OCCOCCOCCO2` was tested, and the TGI (SK-MEL-28 melanoma) was > 100 µM, the TGI (SN12C renal) was > 100 µM and the TGI (MALME-3M melanoma) was 80 µM. The TGI (HL-60(TB) leukemia) was > 100 µM, the TGI (K-562 leukemia) was > 100 µM and the TGI (CCRF-CEM leukemia) was > 100 µM. The TGI (HOP-92 NSCLC) was 72.7 µM.
In the case of `Cn1cc(-c2csc(-c3cn(CCCCN4CCCCC4)c4ccccc34)n2)c2cccnc21`, the GI50 (SK-MEL-28 melanoma) is reported as 1.7 µM, the TGI (SK-MEL-28 melanoma) is reported as 3.12 µM and the GI50 (PC-3 prostate) is reported as 1.61 µM. The TGI (PC-3 prostate) was 3.03 µM, the GI50 (HOP-92 NSCLC) was 1.32 µM and the TGI (HOP-92 NSCLC) was 2.7 µM. It also gave a GI50 (BT-549 breast) of 1.75 µM and a TGI (BT-549 breast) of 3.37 µM.
With `CC(C)=C1CCC(CN(C)C)C1=O` (configuration not stated) the TGI (SK-MEL-28 melanoma) was 34 µM, the TGI (SN12C renal) was 33.6 µM and the TGI (MALME-3M melanoma) was 30.2 µM. For the same compound, the TGI (HL-60(TB) leukemia) was 15.6 µM, the TGI (NCI-H522 lung) was 0.4 µM and the TGI (K-562 leukemia) was 31 µM. The TGI (CCRF-CEM leukemia) was 27.7 µM and the TGI (HOP-92 NSCLC) was 40.6 µM.
